According to PubChem BioAssay AID2197 (Vanderbilt High Throughput Screening Facility, 2009):
Active and inactive are the calls of the source. The rule behind the calls is not given here.

Target: Metabotropic glutamate receptor 4 (Homo sapiens) (UniProt Q14833)
Experiment: PubChem AID 2197
Conditions: CHO hmGluR4/Gqi5 calcium mobilization, PAM potency; for % glutamate max response: at 30.1 µM (top of the series)

Sequence of Metabotropic glutamate receptor 4 (Homo sapiens) (Q14833 whole entry, looked up): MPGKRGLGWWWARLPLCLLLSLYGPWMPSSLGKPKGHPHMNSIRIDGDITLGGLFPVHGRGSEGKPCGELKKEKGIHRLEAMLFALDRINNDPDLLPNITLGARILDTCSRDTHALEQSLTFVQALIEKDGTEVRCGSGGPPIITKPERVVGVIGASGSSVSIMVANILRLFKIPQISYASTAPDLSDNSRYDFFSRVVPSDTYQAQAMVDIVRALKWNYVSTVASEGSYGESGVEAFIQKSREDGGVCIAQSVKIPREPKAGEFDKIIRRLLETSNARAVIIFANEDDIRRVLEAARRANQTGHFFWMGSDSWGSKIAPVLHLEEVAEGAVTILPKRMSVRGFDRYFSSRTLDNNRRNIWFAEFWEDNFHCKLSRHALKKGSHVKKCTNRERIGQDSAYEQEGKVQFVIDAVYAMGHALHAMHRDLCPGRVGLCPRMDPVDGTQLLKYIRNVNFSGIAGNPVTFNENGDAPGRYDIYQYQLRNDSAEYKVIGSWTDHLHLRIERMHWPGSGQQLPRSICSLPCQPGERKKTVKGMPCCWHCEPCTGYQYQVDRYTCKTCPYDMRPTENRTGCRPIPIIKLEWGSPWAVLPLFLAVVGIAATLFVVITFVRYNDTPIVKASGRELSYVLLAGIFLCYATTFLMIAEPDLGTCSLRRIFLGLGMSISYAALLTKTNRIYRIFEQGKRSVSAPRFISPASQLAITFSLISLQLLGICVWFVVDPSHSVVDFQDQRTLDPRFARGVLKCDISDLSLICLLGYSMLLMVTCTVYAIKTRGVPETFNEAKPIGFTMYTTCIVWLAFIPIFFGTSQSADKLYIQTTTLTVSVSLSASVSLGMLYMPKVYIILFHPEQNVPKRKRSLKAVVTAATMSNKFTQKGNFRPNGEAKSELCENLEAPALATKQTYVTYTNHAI

`O=C(Nc1ccc(F)c(C(F)(F)F)c1)c1ccccn1` showed an EC50 of 1530 nM.
With `O=C(Nc1ccc(N2CCCS2(=O)=O)cc1)c1ccccn1` the “% glutamate max response” value was “inactive”.
For `COc1cc(NC(=O)c2ccccn2)ncn1`, the “% glutamate max response” value was “inactive”.
`O=C(Nc1ccc(Cl)c(Cl)c1)c1ccncn1` gave an EC50 of 2840 nM.
In the case of `O=C(Nc1cccc(C(F)(F)F)n1)c1ccccn1`, the “% glutamate max response” value is reported as “inactive”.
`COc1ccc(NC(=O)c2ccccn2)cc1Cl` showed an EC50 of 1050 nM.
`O=C(Nc1cccc(Cl)c1)c1ccccn1` gave an EC50 of 1090 nM.
For `O=C(Nc1ccc(Cl)c(C(F)(F)F)c1)c1ccccn1`, the EC50 was 2050 nM.
In the case of `O=C(Nc1ccc(Cl)c(Cl)c1)c1ccccn1`, the EC50 is reported as 1370 nM.
`COc1cc(NC(=O)c2ccccn2)ccc1C` gave an EC50 of 562 nM.
`COc1cc(NC(=O)c2ccccn2)ccc1F` showed an EC50 of 776 nM.
